Measured values as given in paper PMC9741287, “Cytotoxic and Luminescent Properties of Novel Organotin Complexes with Chelating Antioxidant Ligand” (Molecules, 2022).
“And” between values parts separate entries of the source, which are not always exact repeats. Identical values can stand only once. Like-named read-outs stand apart in the source and are kept apart here.

Assays:
[1] = system: A549 (human lung adenocarcinoma); experiment: MTT-test A549; type: cell-based
Method: (§1) Since the investigated compounds are designed as theranostic and cytostatic agents, their toxic impact was evaluated as a standard MTT-test. Cytotoxicity was studied on four cell lines, i.e.,—HCT116 (human colorectal carcinoma), MCF-7 (human breast cancer), A549 (human lung adenocarcinoma), and WI-38 (human fetal lung fibroblast). Obtained results appear to be unorthodox: as it is known, the introduction of an organotin moiety tends to noticeably increase compounds’ toxicity and more lipophilic ones do it better, but in the presented data pattern turns vice versa (Table 3).
(§2) HCT-116 (colon carcinoma), MCF-7 (breast adenocarcinoma), A-549 (lung adenocarcinoma) cell lines, and WI-38 (cell line composed of fibroblasts) were derived from The European Collection of Authenticated Cell Cultures (ECACC, Salisbury, UK), cultured in DMEM medium (Gibco™, Dublin, Ireland) supplemented with 10% fetal bovine serum (Gibco™, Brasilia, Brazil). The cells were cultured in an incubator at 37 °C in a humidified 5% CO2 atmosphere and subcultured two times a week.
(§3) The toxicity of compounds was studied on cultured cell lines according to standard MTT protocol.

[2] = DPPH-test (radical scavenging); details: for Quantity of Reduced DPPH after 20 h: DPPH 0.2 mM + test compound 0.2 mM in EtOH, equal volumes, 517 nm
Text: 2,2-Diphenyl-1-picrylhydrazyl (DPPH)—is a stable N-centered chromophore radical with absorption peak λmax = 517 nm, while its reduced form is pale yellow. Its reduction can be monitored spectrophotometrically and is a well-known and convenient way of evaluating radical scavenging activity. […] This may be caused by the participation not of only the sterically hindered phenolic group in the process of radical scavenging, but salicylic phenolic group and probably hydrazide fragment as well. The abovementioned structural moieties participate in the coordination of tin atoms, and therefore are excluded from the mechanism of antioxidant action of complexes. […] The introduction of tin is known to lower the radical scavenging capacity of corresponding ligands and is estimated as referred previously. The only exception is complex 7, bearing two 2,6-di-tert-butylphenols pendants attached directly to the tin.
The activity of synthesized compounds as radical scavengers was estimated spectrophotometrically at λmax = 517 nm using stable radical 2,2-diphenyl-1-picrylhydrazyl (Sigma-Aldrich) according to the known procedure. The reaction mixture contained DPPH (0.75 mL, 0.2 mM) and a solution of the test compound in EtOH (0.75 mL, 0.2 mM), and was put in 1 cm glass cuvettes. The measurements were carried out for 20 h and the results were calculated using Microsoft Excel 2010. Antioxidant activity was expressed as the percentage of reduced DPPH according to the Equation (1):I (%) = ((A0 − A1)/A0) × 100(1) where A0 is the absorbance of the control 0.1 mM DPPH in EtOH, ε DPPH = 1.15·× 10^4, and A1 is the absorbance of the reaction mixture in the presence of the test compound.

[3] = system: WI-38 (human fetal lung fibroblast); experiment: MTT-test WI-38; type: cell-based
Method: as §1, §2, §3

[4] = system: MCF-7 (human breast cancer); experiment: MTT-test MCF-7; type: cell-based
Method: as §1, §2, §3

[5] = system: superoxide radical anion O2−• (xanthine-xanthine oxidase system); experiment: NBT-test, superoxide generated in the xanthine-xanthine oxidase system; type: biochemical; details: for I (NBT-Test): 0.006 mL of 5 mM compound in DMSO per 0.3 mL well, 600 s, 560 nm, negative = stimulation
Text: Xanthine oxidase is molybdenum containing enzyme responsible for purine catabolism in the human organism. It is capable of xanthine oxidation, resulting in uric acid and superoxide radical anion as a side product. The latter one is well-known ROS, and the ability to neutralize it marks the compound as a perspective antioxidant. This is followed by the interaction of O2^−• and nitro-blue tetrazolium resulting in the cycle opening (Scheme 4), which is accompanied by the color change with λmax = 560 nm and can be monitored spectrophotometrically.
The influence of compounds on superoxide radical anion О2^−• generated in the enzymatic system xanthine-xanthine oxidase was estimated as the amount of nitro-blue tetrazolium (NBT) reduced to formazan. The assay was carried out in 96-well plates. The total volume of a single well was 0.3 mL and consisted of 0.27 mL of carbonate buffer (40 mM, pH 10.0) containing EDTA (0.1 mM), 0.006 mL of xanthine (10 mM) in carbonate buffer, 0.003 mL of 0.5% bovine serum albumin in water, 0.003 mL of NBT chloride (2.5 mM) in water, and 0.006 mL of a solution of the studied compound in DMSO (5 mM). Xanthine oxidase (0.012 mL, 0.004 units) in buffer was added to the mixture at rt to start the reaction and the absorption at λmax = 560 nm was recorded for 600 s. The control experiment was performed in the presence of 0.006 mL DMSO without a compound. All experiments were performed in triplicate.
Inhibition was expressed by the Equation (2):I (%) = (ν0/ν0′) × 100%,(2) where v0 and v0′ are initial rates of the enzymatic reaction in the presence and absence (control) of the compounds under study, respectively.
The initial rate (v0 and v0′) was calculated by the Equation (3):ν0 = ΔС/Δt = ΔA/(Δt × ε) = tgα/(Δt × ε),(3)
A1 is the absorbance in the presence of the testing compound at the end of the reaction (600 s), and A0 is the absorbance of the blank solution. ΔA is the difference between A1 and A0. All experiments were performed in triplicate.

[6] = Luminescence / photophysical properties; type: physicochemical; details: for Quantum Yield, DMSO Solution 10 µM / Quantum Yield, DMSO Solution 100 µM / Quantum Yield, DMSO Solution 1000 µM / Quantum Yield, Powders: λex = 365 nm; for ε (λmax): at absorption λmax; for Luminosity (λmax): at λmax; for Quantum Yield, Powders: solid (compound 4 is an oil)
Method: Their quantum yields reached 20%, which together with their high absorption (Table 4) makes them highly emissive even in powders.
The registration of luminescence spectra of powders and solutions in the visible range as well as the measurement of quantum yields were carried out with Horiba FluoroMax Plus, with xenon lamp as excitation source at room temperature; excitation was performed through a ligand (λex = 365 nm). The quantum yield was measured by the absolute method in the integrating sphere.

Compound	IC50 ([1]; Homo sapiens, A549) [µM]	EC50 [2] [µM]	IC50 ([3]; Homo sapiens, WI-38) [µM]	IC50 ([4]; Homo sapiens, MCF7) [µM]	I (NBT-Test) [5] [%]	IC50 [1] [µM]	Quantity of Reduced DPPH after 20 h [2] [%]	IC50 [3] [µM]	λmax (absorption) [6] [nm]	Quantum Yield, DMSO Solution 10 µM [6] [%]	Quantum Yield, DMSO Solution 100 µM [6]	Quantum Yield, DMSO Solution 1000 µM [6]	ε (λmax) [6]	Luminosity (λmax) [6]	Quantum Yield, Powders [6]	Luminosity (λ = 365 nm) [6]	ε (λ = 365 nm) [6] [M⁻¹ cm⁻¹]	IC50 [4] [µM]	O2−• scavenging in NBT-test [5]
CC(C)(C)c1cc(C(=O)N/N=C/c2ccccc2O)cc(C(C)(C)C)c1O [Compound 1, Di-tert-butyl-4-hydroxy-N′-(2-hydroxybenzylidene)-benzohydrazine]	2.2 ± 0.4	163	6.6 ± 1.2	4.7 ± 0.8	0.5 ± 0.1	–	–	–	–	–	–	–	–	–	–	–	–	–	–
CC(C)(C)c1cc(C2=NN=Cc3ccccc3[O][Sn]([CH3])([CH3])[O]2)cc(C(C)(C)C)c1O [Compound 2, Me2SnL]	–	–	–	–	6.3 ± 1.8	2.2 ± 0.7	35.2 ± 1.9	9.5 ± 3.1	403	17 ± 3	56 ± 1%	39% and 39 ± 3%	13,070 M^−1·cm^−1	771,130, (403) M^−1·cm^−1	14 ± 2%	508,403 M^−1·cm^−1	8617	5.2 ± 1	–
C[CH2][Sn]1([CH2]C)[O]C(c2cc(C(C)(C)C)c(O)c(C(C)(C)C)c2)=NN=Cc2ccccc2[O]1 [Compound 3, Et2SnL]	–	–	–	–	7.3 ± 2.0	1.5 ± 0.5	41.3 ± 2.1	5.8 ± 1.5	410	17 ± 2	45 ± 1%	30 ± 2%	14,020 M^−1·cm^−1	658,940, (410) M^−1·cm^−1	14 ± 2%	210,983 M^−1·cm^−1	4489	3.7 ± 0.5	–
CCC[CH2][Sn]1([CH2]CCC)[O]C(c2cc(C(C)(C)C)c(O)c(C(C)(C)C)c2)=NN=Cc2ccccc2[O]1 [Compound 4, Bu2SnL]	–	–	–	–	−4.6 ± 1.2	14.5 ± 4.5	50.5 ± 2.8	10.8 ± 3.5	409	41 ± 3	67% and 66 ± 2%	36 ± 3%	5950 M⁻¹ cm⁻¹	398,650, (409) M^−1·cm^−1	4 ± 3%	146,127 M^−1·cm^−1	2181	1.01 ± 0.4	–
CC(C)(C)c1cc(C2=NN=Cc3ccccc3[O][Sn]([C](C)(C)C)([C](C)(C)C)[O]2)cc(C(C)(C)C)c1O [Compound 5, Bu^t2SnL]	–	–	–	–	5.9 ± 1.5	43 ± 10	26.5 ± 1.7	26.3 ± 11.3	412	20 ± 2	37 ± 1%	29 ± 2%	9920 M⁻¹ cm⁻¹	–	8 ± 1%	206,360 M^−1·cm^−1	3080	50.4 ± 12.6	–
CC(C)(C)c1cc(C2=NN=Cc3ccccc3[O][Sn]([c]3ccccc3)([c]3ccccc3)[O]2)cc(C(C)(C)C)c1O [Compound 6, Ph2SnL]	–	–	–	–	−28.0 ± 3.6	20.2 ± 4	47.4 ± 2.7	52.6 ± 14.6	393	25 ± 2	67 ± 2%	26 ± 2%	13,450 M^−1·cm^−1	–	6 ± 2%	333,370 M^−1·cm^−1	9010	26.3 ± 3.5	stimulate O2^−· formation instead of inhibiting it
CC(C)(C)c1cc(C2=NN=Cc3ccccc3[O][Sn]([c]3cc(C(C)(C)C)c(O)c(C(C)(C)C)c3)([c]3cc(C(C)(C)C)c(O)c(C(C)(C)C)c3)[O]2)cc(C(C)(C)C)c1O [Compound 7, (2,6-Di-tert-butylphenol)2SnL]	–	12.8	–	–	−40.5 ± 4.2	31.9 ± 5.7	–	10.6 ± 3.5	402	21 ± 2	42 ± 1%	32 ± 2%	13,270 M^−1·cm^−1	557,340, (402) M^−1·cm^−1	20% and 20 ± 2%	294,084 M^−1·cm^−1	7002	32.7 ± 9.5	stimulate O2^−· formation instead of inhibiting it
